Assay results from US5902583A, “Genetic induction of receptors for targeted radiotherapy” (priority 1997, dated 1999).
“Also recorded” adds a separate entry of the source. Where two headings read alike, the source gives them in different places.

Columns and labels:
IL-4 receptor = test: Radiolabeled IL-4 binding after adenovirus-polylysine-DNA transduction of IL-4 receptor; details: adenovirus-polylysine-DNA conjugates
murine IL-4 receptor = details: cited from earlier work
[1] = native somatostatin; cited from earlier work
SSTR2 = details: cited from earlier work
[2] = test system: murine gastrin releasing peptide receptor (mGRP-R); test: Radiolabeled bombesin binding after adenovirus-polylysine-mediated transfection of GRPr; details: AdpL, versus uninfected controls
Excerpt: Next, gene mediated expression of receptors was applied in the context of inducing expression of a receptor that could be targeted with a radiolabeled peptide and thus employed the gene encoding the murine gastrin releasing peptide receptor (mGRP-R). The first technique utilized the methodology of an adenovirus-polylysine-mediated transfection (AdpL) to accomplish transient gene expression of mGRP-R in human lung cancer cells.

[3] = test system: SKOV3.ip1 tumors expressing mGRPr; test: Biodistribution and pharmacokinetics of radiolabeled bombesin analogue in mice bearing i.p. SKOV3.ip1 tumors infected with AdCMVGRPr; assay type: in vivo, human SKOV3.ip1 tumors in athymic nude mice
Experimental: All biodistribution studies were performed in female Balb/c athymic nude mice obtained at 4-5 weeks of age from Frederick Research Laboratory (Frederick, Md.). The peptide mIP-Des-Met-bombesin(7-13)NH2 was synthesized using solid phase peptide synthesis at the UAB Comprehensive Cancer Center Peptide Synthesis and Analysis Shared Facility and has been described elsewhere. Mice were injected i.p. with 2×10^7 SKOV3.ip1 human ovarian carcinoma cells. Five days following cell inoculation, mice were injected i.p. with 1×10^9 pfu of a recombinant adenoviral vector expressing mGRPr. Animals were then injected i.p. 48 hours later with 2 μCi of [^125 I]-mIP bombesin. Mice were sacrificed at 0.5, 2, 5, 15, 30 min and 1, 4, 8, 12 and 24 hours following peptide injection (n=4-10/group) and the following organs were dissected: blood, heart, lungs, liver, stomach, small intestine, spleen, kidney, skin, bone, muscle, uterus, peritoneal lining and thyroid. In addition, tumor nodules were removed from each mouse. All organs, and tumors were weighed and the activity counted in a gamma counter. The % ID/g for each tissue was calculated except for the thyroid in which only the % ID was determined.
Descriptive statistics were calculated to examine the distribution and variation of time concentration of radiolabeled antibody and peptide, and tissue to blood ratio data (means and standard deviations). Means at each specific time point were calculated from multiple mice data for both tissue concentration and tissue to blood ratios. Mean concentration data (% ID/g) over time was used for pharmacokinetical modeling. The pharmacokinetical parameters were estimated by using the NLIN procedure of Statistical Analysis System programs. Selection of models was based on comparison of Akaike's Information Criterion, the minimization of the model's mean squared error and standard error of the estimated model parameters, and the graphical diagnostics of the model fit.
Four different pharmacokinetic models, including one and two compartment elimination models along with one and two-compartment models with an absorption phase were required to fit the time concentration curves for the peptide. […] For each of these, the elimination t1/2 was calculated along with Cmax and AUC. A one-compartment model with an absorption phase was determined to be the best model for abdominal lining and muscle data. For each of these, the elimination t1/2 values for each compartment were calculated along with Cmax and AUC. A two-compartment model with an absorption phase was the best model for blood, kidney, and small intestine data. For each of these, elimination t1/2 values for each compartment and the absorption t1/2 value was calculated along with Cmax, Tmax and AUC.

mGRPr expressing cells = test: Internalization and intracellular retention in mGRPr expressing cells; assay type: cell-based, murine
mGRPr = test: Binding to murine GRP receptor
human IL-4 receptor = details: murine ligand; cited from earlier work

^125 I-labeled IL-4: ^125 I-labeled IL-4
radiolabeled IL-4 binding to transduced cells (IL-4 receptor): specific binding | Ka (murine IL-4 receptor; ^125 I-IL-4, transduced COS-7 cells): 10^9 -10^10 M^-1

C[C@H](N)C(=O)NCC(=O)N[C@H]1CSSC[C@@H](C(=O)O)NC(=O)[C@H](CO)NC(=O)[C@H]([C@@H](C)O)NC(=O)[C@H](Cc2ccccc2)NC(=O)[C@H]([C@@H](C)O)NC(=O)[C@H](CCCCN)NC(=O)[C@H](Cc2c[nH]c3ccccc23)NC(=O)[C@H](Cc2ccccc2)NC(=O)[C@H](Cc2ccccc2)NC(=O)[C@H](CC(N)=O)NC(=O)[C@H](CCCCN)NC1=O [Somatostatin]
plasma half-life [1]: minutes

C[C@@H](O)[C@@H]1NC(=O)[C@H](CCCCN)NC(=O)[C@@H](Cc2c[nH]c3ccccc23)NC(=O)[C@H](Cc2ccccc2)NC(=O)[C@@H](NC(=O)[C@H](N)Cc2ccccc2)CSSC[C@@H](C(=O)N[C@H](CO)[C@@H](C)O)NC1=O [Octreotide]
binding to SSTR2 (SSTR2): binds with high affinity

^125 I-labeled bombesin: ^125 I-labeled bombesin
radiolabeled bombesin binding to transduced cells [2]: specific binding; also recorded: successfully demonstrated

[^125 I]-mIP-Des-Met^14 -bombesin(7-13)NH2 [[^125 I]-mIP-bombesin]
concentration in tumor (highest) ([3]; 30 sec after injection, 0.5 min): 33.6±18.2 % ID/g | tumor to blood ratio relative to antibody ([3]; 30 sec, versus e21): 24.8 fold | tumor localization at 4 hours post injection versus [^125 I]-Tyr-bombesin ([3]; 4 hours post injection): much greater | concentration in tumor ([3]; 24 hours after injection): 2.5±2.8 % ID/g | tumor to blood ratio relative to antibody ([3]; 24 hours, versus e21): 15.4 fold | AUC ([3]; abdominal lining): 160.9 percent ID × h/g | Cmax ([3]; abdominal lining): 47.7 percent ID/g | t1/2α ([3]; abdominal lining): 0.1 h | t1/2β ([3]; abdominal lining): 6.5 h | AUC ([3]; blood): 8.0 percent ID × h/g | Cmax ([3]; blood): 1.5 percent ID/g | Tmax ([3]; blood): 0.6 h | t1/2α ([3]; blood): 0.8 h | t1/2β ([3]; blood): 6.7 h | AUC ([3]; bone): 12.8 percent ID × h/g | Cmax ([3]; bone): 1.1 percent ID/g | t1/2β ([3]; bone): 7.9 h | AUC ([3]; heart): 8.3 percent ID × h/g | Cmax ([3]; heart): 0.9 percent ID/g | t1/2β ([3]; heart): 6.6 h | AUC ([3]; kidney): 44.8 percent ID × h/g | Cmax ([3]; kidney): 15.3 percent ID/g | Tmax ([3]; kidney): 0.5 h | t1/2α ([3]; kidney): 0.4 h | t1/2β ([3]; kidney): 4.7 h | tumor to blood ratio ([3]; level after drop from initial peak and rise): about 50 | AUC ([3]; liver): 49.2 percent ID × h/g | Cmax ([3]; liver): 9.8 percent ID/g | t1/2β ([3]; liver): 3.5 h | AUC ([3]; lung): 7.6 percent ID × h/g | Cmax ([3]; lung): 1.3 percent ID/g | Tmax ([3]; lung): 0.05 h | t1/2β ([3]; lung): 4.1 h | AUC ([3]; muscle): 12.4 percent ID × h/g | Cmax ([3]; muscle): 3.6 percent ID/g | t1/2α ([3]; muscle): 0.6 h | t1/2β ([3]; muscle): 7.7 h | AUC ([3]; skin): 5.9 percent ID × h/g | Cmax ([3]; skin): 1.0 percent ID/g | Tmax ([3]; skin): 0.4 h | t1/2β ([3]; skin): 3.7 h | AUC ([3]; small intestine): 112 percent ID × h/g | Cmax ([3]; small intestine): 41.7 percent ID/g | Tmax ([3]; small intestine): 0.3 h | t1/2α ([3]; small intestine): 0.6 h | t1/2β ([3]; small intestine): 8.3 h | AUC ([3]; spleen): 71.7 percent ID × h/g | Cmax ([3]; spleen): 10.9 percent ID/g | t1/2β ([3]; spleen): 4.6 h | AUC ([3]; stomach): 172.3 percent ID × h/g | Cmax ([3]; stomach): 10.2 percent ID/g | Tmax ([3]; stomach): 0.05 h | t1/2β ([3]; stomach): 11.7 h | AUC ([3]; tumor): 193.1 percent ID × h/g | Cmax ([3]; tumor): 25.6 percent ID/g | t1/2β (clearance half-life) ([3]; tumor): 5.2 h | AUC ([3]; uterus): 182.8 percent ID × h/g | Cmax ([3]; uterus): 29.2 percent ID/g | t1/2β ([3]; uterus): 4.3 h | peak tumor to blood ratio, bombesin analogue relative to antibody ([3]; versus e21): 12.6 fold | internalization versus [^125 I]-Tyr-bombesin (mGRPr expressing cells): higher internalization | intracellular retention versus [^125 I]-Tyr-bombesin (mGRPr expressing cells): longer intracellular retention | intracellular retention versus [^125 I]-Tyr-bombesin (mGRPr expressing cells; listed as modified seven amino acid analogue of bombesin): longer retention time within cells | binding to mGRPr (mGRPr): high affinity binding

Murine IL-4: glycoprotein with an approximate molecular weight of 19 kD
binding to the human receptor (human IL-4 receptor): does not exhibit binding

human IL-4: human IL-4
binding to the murine receptor (murine IL-4 receptor; human IL-4): does not exhibit binding
